Measured values as given in US20240360178A1, “MACROCYCLIC IMMUNOMODULATORS” (Bristol-Myers Squibb Company, priority 2021, published 2024).
Positions of bridges follow the written chain, without caps; N, C: chain ends. Non-standard residues stand in square brackets, D forms with d. Residues, ends and D or L forms follow the SMILES beside them. ξ: configuration not given here. *: point of attachment. Bip = N[C@@H](Cc1ccc(-c2ccccc2)cc1)C(=O)O; NMeY = CN[C@@H](Cc1ccc(O)cc1)C(=O)O; NMeF = CN[C@@H](Cc1ccccc1)C(=O)O; ξR = N=C(N)NCCCC(N)C(=O)O; Carboxymethyl = O=C(O)C*; NMeA = CN[C@@H](C)C(=O)O; Orn = NCCC[C@H](N)C(=O)O; Dab = NCC[C@H](N)C(=O)O; ξS = NC(CO)C(=O)O; Sar = CNCC(=O)O

Molecular target: T1, human PD-1 (Jurkat-PD-1 cells) / PE-labeled human PD-L1-Ig (Homo sapiens, UniProt Q15116)
T1 construct: expressed in transfected cells; host or cells: Jurkat cell line over-expressing human PD-1
Assay: Jurkat-PD-1 Cell Binding High-Content Screening Assay (CBA); Jurkat hPD1-PDL1 assay
Conditions: Jurkat cell line over-expressing human PD-1; PE-labeled PD-L1-Ig 20 nM final; compound incubated 2 hours at 37° C.; read-out: Jurkat HPD1-PDL1 IC50
Experimental: The ability of the compounds of formula (I) to bind to PD-1 was investigated using a Jurkat-PD-1 Cell Binding High-Content Screening Assay.
Jurkat-PD-1 Cell Binding High-Content Screening Assay (CBA)
Phycoerythrin (PE) was covalently linked to the Ig epitope tag of human PD-L1-Ig and fluorescently-labeled PD-L1-Ig was used for binding studies with a Jurkat cell line over-expressing human PD-1 (Jurkat-PD-1). Briefly, 8×10^3 Jurkat-hPD-1 cells were seeded into 384 well plates in 20 μL of DMEM supplemented with 10% fetal calf serum. 100 nL of compound was added to cells followed by incubation at 37° C. for 2 hours. Then, 5 μL of PE-labeled PD-L1-Ig (20 nM final), diluted in DMEM supplemented with 10% fetal calf serum. […] Data was collected and processed using a Cell Insight NXT High Content Imager and associated software.

T1 sequence (Q15116 25-288): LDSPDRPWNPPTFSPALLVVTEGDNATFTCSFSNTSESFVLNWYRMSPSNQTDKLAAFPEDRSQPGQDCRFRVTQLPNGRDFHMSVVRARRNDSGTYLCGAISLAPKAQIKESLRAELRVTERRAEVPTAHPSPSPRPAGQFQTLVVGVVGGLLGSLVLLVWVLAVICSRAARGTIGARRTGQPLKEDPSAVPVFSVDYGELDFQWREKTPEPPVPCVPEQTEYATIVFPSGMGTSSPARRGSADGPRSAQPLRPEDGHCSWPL

| SMILES | IC50 |
| --- | --- |
| CC(C)C[C@@H]1NC(=O)[C@H](CCCNC(=N)N)NC(=O)[C@H](Cc2ccccc2)N(C)C(=O)[C@H](C)N(C)C(=O)[C@H](CCCNC(=N)N)NC(=O)[C@H](Cc2ccc(-c3ccccc3)cc2)NC(=O)[C@H](C(C)C)NC(=O)[C@H](Cc2c[nH]c3ccccc23)NC(=O)[C@H](CC(=O)O)NC(=O)[C@H](Cc2ccc(O)cc2)NC(=O)[C@H](CC(N)=O)NC(=O)CSC[C@@H](C(=O)N[C@@H](C)C(N)=O)NC(=O)[C@H](CO)NC(=O)[C@H](C(C)C)NC1=O [Example 1301] ({CH2CO}-NYDWV[Bip]R[NMeA][NMeF]RLVSCA-NH2; thioether N-14) | 150 nM |
| CC(C)C[C@@H]1NC(=O)[C@H](CC(N)=O)NC(=O)CN(C)C(=O)[C@H](C)N(C)C(=O)[C@H](C(C)C)NC(=O)[C@H](Cc2ccc(-c3ccccc3)cc2)NC(=O)[C@H](C(C)C)NC(=O)[C@H](Cc2c[nH]c3ccccc23)NC(=O)[C@H](CC(=O)O)NC(=O)[C@H](Cc2ccc(O)cc2)NC(=O)[C@H](Cc2ccccc2)NC(=O)CSC[C@@H](C(=O)NCC(N)=O)NC(=O)[C@H](CO)NC(=O)[C@H](C(C)C)NC1=O [Example 1202] ({CH2CO}-FYDWV[Bip]V[NMeA][Sar]NLVSCG-NH2; thioether N-14) | 80 nM |
| CC(C)C[C@@H]1NC(=O)[C@H](CCCNC(=N)N)NC(=O)[C@H](Cc2ccccc2)N(C)C(=O)[C@H](C)N(C)C(=O)[C@H](CCC(=O)O)NC(=O)[C@H](Cc2ccc(-c3ccccc3)cc2)NC(=O)[C@H](C(C)C)NC(=O)[C@H](Cc2c[nH]c3ccccc23)NC(=O)[C@H](CC(=O)O)NC(=O)[C@H](Cc2ccc(O)cc2)NC(=O)[C@H](Cc2ccccc2)NC(=O)CSC[C@@H](C(=O)N[C@@H](C)C(N)=O)NC(=O)[C@H]([C@@H](C)O)NC(=O)[C@H](C(C)C)NC1=O [Example 1344] ({CH2CO}-FYDWV[Bip]E[NMeA][NMeF]RLVTCA-NH2; thioether N-14) | 220 nM |
| CC(C)C[C@@H]1NC(=O)[C@H](Cc2c[nH]c3ccccc23)NC(=O)[C@H](CC(=O)O)NC(=O)[C@H](Cc2ccc(OCC(=O)O)cc2)NC(=O)[C@H](Cc2ccc(OCC(=O)O)cc2)NC(=O)CSC[C@@H](C(=O)N[C@@H](C)C(N)=O)NC(=O)[C@H](CO)NC(=O)[C@H](C(C)C)NC(=O)[C@H](CC(C)C)NC(=O)[C@H](CC(N)=O)NC(=O)[C@H]2CCCN2C(=O)[C@H](C)N(C)C(=O)[C@H](C(C)C)NC(=O)[C@H](Cc2ccc(-c3ccccc3)cc2)NC1=O [Example 1432] ({CH2CO}-Y(Carboxymethyl)Y(Carboxymethyl)DWL[Bip]V[NMeA][dP]NLVSCA-NH2; thioether N-14) | 80 nM |
| CC(C)C[C@@H]1NC(=O)[C@H](Cc2c[nH]c3ccccc23)NC(=O)[C@H](CC(=O)O)NC(=O)[C@H](Cc2ccc(O)cc2)NC(=O)[C@H](Cc2ccccc2)NC(=O)CSC[C@@H](C(=O)N[C@@H](C)C(N)=O)NC(=O)C(CO)NC(=O)[C@H](C(C)C)NC(=O)[C@H](CC(C)C)NC(=O)[C@H](CCN)NC(=O)[C@H]2CCCN2C(=O)[C@H](CCN)NC(=O)[C@H](C(C)C)NC(=O)[C@H](Cc2ccc(-c3ccccc3)cc2)NC1=O (some centres unmarked) [Example 1415] ({CH2CO}-FYDWL[Bip]V[Dab][dP][Dab]LV[ξS]CA-NH2; thioether N-14) | 80 nM |
| CC(C)C[C@@H]1NC(=O)[C@H](CCCNC(=N)N)NC(=O)[C@H](Cc2ccccc2)N(C)C(=O)[C@H](C)N(C)C(=O)[C@H](CCCN)NC(=O)[C@H](Cc2ccc(-c3ccccc3)cc2)NC(=O)[C@H](C(C)C)NC(=O)[C@H](Cc2c[nH]c3ccccc23)NC(=O)[C@H](CC(=O)O)NC(=O)[C@H](Cc2ccc(O)cc2)NC(=O)[C@H](CC(N)=O)NC(=O)CSC[C@@H](C(=O)N[C@@H](C)C(N)=O)NC(=O)[C@H]([C@@H](C)O)NC(=O)[C@H](C(C)C)NC1=O [Example 1347] ({CH2CO}-NYDWV[Bip][Orn][NMeA][NMeF]RLVTCA-NH2; thioether N-14) | 160 nM |
| CC(C)C[C@@H]1NC(=O)[C@H](CCCNC(=N)N)NC(=O)[C@H](Cc2ccccc2)N(C)C(=O)[C@H](C)N(C)C(=O)[C@H](CCCNC(=N)N)NC(=O)[C@H](Cc2ccc(-c3ccccc3)cc2)NC(=O)[C@H](C(C)C)NC(=O)[C@H](Cc2c[nH]c3ccccc23)NC(=O)[C@H](CC(=O)O)NC(=O)[C@H](Cc2ccc(O)cc2)NC(=O)[C@H](Cc2ccccc2)NC(=O)CSC[C@@H](C(=O)NCC(N)=O)NC(=O)[C@H](CC(=O)O)NC(=O)[C@H](C(C)C)NC1=O [Example 1333] ({CH2CO}-FYDWV[Bip]R[NMeA][NMeF]RLVDCG-NH2; thioether N-14) | 680 nM |
| CC(C)C[C@@H]1NC(=O)[C@H](CCCNC(=N)N)NC(=O)[C@H](Cc2ccccc2)N(C)C(=O)[C@H](C)N(C)C(=O)[C@H](CCC(=O)O)NC(=O)[C@H](Cc2ccc(-c3ccccc3)cc2)NC(=O)[C@H](C(C)C)NC(=O)[C@H](Cc2c[nH]c3ccccc23)NC(=O)[C@H](CC(=O)O)NC(=O)[C@H](Cc2ccc(O)cc2)NC(=O)[C@H](CC(N)=O)NC(=O)CSC[C@@H](C(=O)N[C@@H](C)C(N)=O)NC(=O)[C@H](CO)NC(=O)[C@H](C(C)C)NC1=O [Example 1382] ({CH2CO}-NYDWV[Bip]E[NMeA][NMeF]RLVSCA-NH2; thioether N-14) | 130 nM |
| CC(C)C[C@@H]1NC(=O)[C@H](CCCNC(=N)N)NC(=O)[C@H](Cc2ccc(O)cc2)N(C)C(=O)[C@H](C)N(C)C(=O)[C@H](CCCNC(=N)N)NC(=O)[C@H](Cc2ccc(-c3ccccc3)cc2)NC(=O)[C@H](C(C)C)NC(=O)[C@H](Cc2c[nH]c3ccccc23)NC(=O)[C@H](CC(=O)O)NC(=O)[C@H](Cc2ccc(O)cc2)NC(=O)[C@H](Cc2ccccc2)NC(=O)CSC[C@@H](C(=O)NCC(N)=O)NC(=O)[C@H](CO)NC(=O)[C@H](C(C)C)NC1=O [Example 1280] ({CH2CO}-FYDWV[Bip]R[NMeA][NMeY]RLVSCG-NH2; thioether N-14) | 500 nM |
| CC(C)C[C@@H]1NC(=O)C(CCCNC(=N)N)NC(=O)[C@H](Cc2ccccc2)N(C)C(=O)[C@H](C)N(C)C(=O)[C@H](CCCNC(=N)N)NC(=O)[C@H](Cc2ccc(-c3ccccc3)cc2)NC(=O)[C@H](C(C)C)NC(=O)[C@H](Cc2c[nH]c3ccccc23)NC(=O)[C@H](CC(=O)O)NC(=O)[C@H](Cc2ccc(O)cc2)NC(=O)[C@H](Cc2ccccc2)NC(=O)CSC[C@@H](C(=O)NCC(N)=O)NC(=O)[C@H](CCCNC(=N)N)NC(=O)[C@H](C(C)C)NC1=O (some centres unmarked) [Example 1220] ({CH2CO}-FYDWV[Bip]R[NMeA][NMeF][ξR]LVRCG-NH2; thioether N-14) | 720 nM |
| CC(C)C[C@@H]1NC(=O)[C@H](CCCNC(=N)N)NC(=O)[C@H](Cc2ccccc2)N(C)C(=O)[C@H](C)N(C)C(=O)[C@H](CCCNC(=N)N)NC(=O)[C@H](Cc2ccc(-c3ccccc3)cc2)NC(=O)[C@H](C(C)C)NC(=O)[C@H](Cc2c[nH]c3ccccc23)NC(=O)[C@H](CC(=O)O)NC(=O)[C@H](Cc2ccc(O)cc2)NC(=O)[C@H](CC(N)=O)NC(=O)CSC[C@@H](C(=O)N[C@@H](C)C(N)=O)NC(=O)[C@H]([C@@H](C)O)NC(=O)[C@H](C(C)C)NC1=O [Example 1318] ({CH2CO}-NYDWV[Bip]R[NMeA][NMeF]RLVTCA-NH2; thioether N-14) | 380 nM |
